Measurements published in PMC4267740, “Unprecedented Therapeutic Potential with a Combination of A2A/NR2B Receptor Antagonists as Observed in the 6-OHDA Lesioned Rat Model of Parkinson's Disease” (PLoS ONE, 2014).
“Also recorded” adds a separate entry of the source. Where two headings read alike, the source gives them in different places.

Legend:
[1] = Plasma and brain exposure in satellite lesioned rats; assay type: in vivo, rat; details: rat, mean ± SD; for concentration at 60 min: po, 30 mg/kg, 60 min after dosing; for concentration at 90 min: ip, 3 mg/kg, 90 min after dosing
Protocol: Satellite lesioned rats (400–450 g) were anesthetized with isoflurane and sacrificed by exsanguination. Blood samples were collected in EDTA centrifuged 10 min at 3000 rpm at 4°C to obtain plasma and stored at −20°C prior the analysis. Brains were perfused by saline collected and immediately stored at −20°C prior the analysis. Brain samples were added to 4 volumes of water before being homogenized. A structural analog compound was added as internal standard to the samples and proteins were crashed using 8 volumes of acetonitrile. Compounds were analyzed on an API5000 mass spectrometer (ABSciex, Framingham, MA, USA.) equipped with a turbo ion spray source and interfaced with an Agilent 1290 Infinity LC system (Agilent Technologies, Waldbroon, Germany). The mass spectrometer was operated in the positive ionization mode with Multiple Reactions Monitoring used to quantify the various analytes (407 to 292 for Tozadenant; 398 to 109 for Radiprodil, 346 to 105 for Sch-58261 and 342 to 100 for Co-101244). A Waters HSS T3 column (2.1×30 mm, 1.8 µm) was used. The mobile phase consisted of 100% water with 0.1% formic acid (phase A) and 100% acetonitrile with 0.1% formic acid (phase B). The flow rate was 1 mL/min. A linear gradient was performed from 0 to 1 min (95 to 30% phase A), a jump to 90% B in 0.01 min, a hold period of 1.29 min at 90% phase B followed by equilibration at the initial condition was applied before the following injection.
(§1) Before undertaking the study, each A2A and NR2B antagonist was tested individually. The doses were selected on the basis of preliminary dose-response curves performed separately for each drug and submaximal dose (i.e. response observed is not at its maximal level) of each drug was selected for the combination studies. The two drugs were administered separately via an intraperitoneal (ip) injection with a 2-minute interval between the two drugs. Five minutes after the second injection, animals were placed in the testing cage for behavioural recording. Due to formulation and exposure issues, Tozadenant and Radiprodil had to be administered orally and therefore recording was started 60 minutes post dosing at this corresponds to maximum plasma concentrations. Eight drug-naïve animals were used for each of the four procedures; 32 in total for each combination. All behavioral experiments were conducted between 8.00 AM and 2.00 PM at the latest. Preliminary pharmacokinetic assays investigated the plasma and brain disposition of selected drugs administered alone or in combination (ie. Tozadenant/Radiprodil, and Sch-58261/Co-101244; 3 animals per group). Tozadenant and Radiprodil were measured in samples obtained 60 minutes after single oral administration at 30 mg/kg. Sch-58261 and Co-101244 were measured in samples collected 90 min after single intraperitoneal administration at 3 mg/kg.

[2] = test system: unilateral 6-OHDA-lesioned rats; experiment: Distance traveled in actometers, monotherapy (without L-Dopa); assay type: in vivo, rat
Protocol: To protect norepinephrinergic neurons, animals were administered imipramine HCl (Sigma) 15 minutes before surgery. They were subsequently anesthetized with ketamine (Ceva, 75 mg/kg) and xylazine (Bayer, 10 mg/kg) and placed in stereotaxic frame (David Kopf Instrument). 6-OHDA was injected into the right ascending medial forebrain bundle at the following coordinates (in mm) relative to bregma and surface of the dura, AP = −3.5, ML = −1.5, DV = −8.7. Each rat received one injection of 6-OHDA (4 µg/µl) over a period of 5 minutes (0.5 µl/min) for a total of 10 µg per rat. Animals were monitored for 3 weeks to ensure full recovery and habituation to the environment and experimenters.
On day 21 post surgery, all rats were challenged with a small dose of subcutaneously administered apomorphine (Sigma, 0.05 mg/kg). Rats showing more than 90 contralateral rotations (360°) over a 45-minute recording period were included in the study. […] For each experiment, rats were allocated to the different experimental groups in order to get the same mean level of basal activity measured at the apomorphine challenge amongst the different experimental groups.
Drug-naïve separate rats were tested individually in clear acrylic chambers (LE8811 IR, Panlab). Locomotion was detected and measured by 16 infrared light-beam sensors located on each side of the enclosure at a height of 3 cm. Sensors were spaced such that the light beams formed a matrix of 15×15 squares over the surface. Activity counts were recorded on a computer and Acti-Track software (Actitrack, Panlab) was used to convert raw data into “distance traveled” and “rearing counts” for analysis as relevant dependent variables.
Six different combinations of A2A/NR2B antagonists were tested without L-Dopa. For each combination, there were four different procedures: vehicle only; A2A antagonist followed by vehicle; vehicle followed by the NR2B antagonist and A2A antagonist followed by the NR2B antagonist. The drugs, doses and combinations are described in Table 3. After drug administration, rats were placed in actometers (open-field) for monitoring the general level of motor activity (distance traveled and rearing counts).
as §1
The effects of A2A and NR2B antagonists on the level of motor activity (i.e. distance traveled and rearing counts) were assessed with three-way mixed ANOVA, combining the A2A receptor antagonist (2 levels, vehicle and the A2A drug) and the NR2B antagonist (2 levels, vehicle and the NR2B drug) as between-group factors with the time as within-subjects factor (6 or 9 levels). […]

NR2B = details: In vitro Binding; cited from earlier work
NR2A = test system: NR2A; set-up: method as in PMID 19594762; details: In vitro Binding; cited from earlier work
A2A = target: A2A; set-up: method as in PMID 21810444, PMID 9933143, PMID 17236762; details: in vitro binding; rat or human; cited from earlier work
A1 = target: A1; set-up: method as in PMID 21810444, PMID 9933143, PMID 17236762; details: in vitro binding; rat or human; cited from earlier work
[3] = brain, administered alone, oral 30 mg/kg, expressed per g tissue, 3 animals, read-out: Brain concentration
[4] = brain, administered in combination Tozadenant + Radiprodil, both oral 30 mg/kg, expressed per g tissue, 3 animals, read-out: Brain concentration
[5] = plasma, administered alone, oral 30 mg/kg, 3 animals, read-out: Plasma concentration
[6] = plasma, administered in combination Tozadenant + Radiprodil, both oral 30 mg/kg, 3 animals, read-out: Plasma concentration
[7] = Preladenant 0.1 mg/kg ip, Radiprodil 1 mg/kg ip
[8] = Tozadenant 30 mg/kg po, Radiprodil 3 mg/kg po
[9] = Sch-58261 1 mg/kg ip, Co-101244 1 mg/kg ip
[10] = Sch-58261 1 mg/kg ip, Merck 22 1 mg/kg ip

For O=C(Nc1ccc2[nH]c(=O)oc2c1)C(=O)N1CCC(Cc2ccc(F)cc2)CC1 [Radiprodil], the concentration at 60 min [1, 3] was 2630 ± 560 ng/mL, the concentration at 60 min [1, 4] was 2590 ± 2480 ng/mL and the concentration at 60 min [1, 5] was 4960 ± 850 ng/mL. For the same compound, the concentration at 60 min [1, 6] was 5590 ± 2930 ng/mL, the “Distance traveled, drugs main effect, p (three-way mixed ANOVA)” value (from here on “Distance traveled, drugs main effect, p”) [2, 7] was “p<0.001” and the “Distance traveled, drugs × time effect, p (three-way mixed ANOVA)” value [2, 7] was “p<0.001”. For the same compound, the “Distance traveled, drugs alone vs vehicle, p (Newman-Keuls)” value [2, 8] was “not all drugs when administered alone improved distance traveled; also recorded: Not significant”, the “Distance traveled, drugs main effect, p” value [2, 8] was “p<0.01” and the “Distance traveled, drugs × time effect, p (three-way mixed ANOVA)” value [2, 8] was “p<0.001”. The IC50 (NR2B) was 3 to 10 nM and the IC50 (NR2A) was over 10000 nM.
Nc1nc2c(cnn2CCc2ccccc2)c2nc(-c3ccco3)nn12 [Sch-58261] showed a concentration at 90 min ([1]; brain, administered alone, ip 3 mg/kg, expressed per g tissue, 3 animals (Co-101244 n = 2), read-out: Brain concentration) of 246 ± 34.7 ng/mL, a concentration at 90 min ([1]; brain, administered in combination Sch-58261+Co-101244, both ip 3 mg/kg, expressed per g tissue, 3 animals, read-out: Brain concentration) of 264 ± 38.3 ng/mL and a concentration at 90 min ([1]; plasma, administered alone, ip 3 mg/kg, 3 animals (Co-101244 n = 2), read-out: Plasma concentration) of 97.2 ± 10.1 ng/mL. The concentration at 90 min ([1]; plasma, administered in combination Sch-58261+Co-101244, both ip 3 mg/kg, 3 animals, read-out: Plasma concentration) was 112 ± 4.16 ng/mL, the “Distance traveled, drugs alone vs vehicle, p (Newman-Keuls)” value [2, 9] was “Both p<0.01” and the “Distance traveled, drugs main effect, p” value [2, 9] was “p<0.001”. The “Distance traveled, drugs × time effect, p (three-way mixed ANOVA)” value [2, 9] was “p<0.001”, the “Distance traveled, drugs alone vs vehicle, p (Newman-Keuls)” value [2, 10] was “Both p<0.01” and the “Distance traveled, drugs main effect, p” value [2, 10] was “p<0.001”. The “Distance traveled, drugs × time effect, p (three-way mixed ANOVA)” value [2, 10] was “Not significant” and the “Distance traveled, drug alone in comparison to vehicle-treated controls” value ([2]; drug administered alone) was “significant increase”.
With COc1ccc(N2CCOCC2)c2sc(NC(=O)N3CCC(C)(O)CC3)nc12 [Tozadenant] the concentration at 60 min [1, 3] was 180 ± 40 ng/mL, the concentration at 60 min [1, 4] was 110 ± 40 ng/mL and the concentration at 60 min [1, 5] was 6050 ± 950 ng/mL. The concentration at 60 min [1, 6] was 5040 ± 140 ng/mL, the “Distance traveled, drugs alone vs vehicle, p (Newman-Keuls)” value [2, 8] was “not all drugs when administered alone improved distance traveled; also recorded: Not significant” and the “Distance traveled, drugs main effect, p” value [2, 8] was “p<0.05”. For the same compound, the “Distance traveled, drugs × time effect, p (three-way mixed ANOVA)” value [2, 8] was “p<0.001”, the Ki (A2A) was 4.9 nM and the Ki (A1) was 1320 nM.
